Patent US8367659B2, “Oxazinyl isoflavonoid compounds, medicaments and use” (Marshall Edwards, Inc., priority 2007, dated 2013)

How the values were obtained:
[1] = tested on: human umbilical vein smooth muscle cells (HUVSMC); assay: Proliferation of human umbilical vein smooth muscle cells (MTT); type: cell-based
Method in brief: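 Read-out is MTT absorbance expressed as test/control*100−100 versus FCS-stimulated untreated controls. Serum-starved smooth muscle cells (1.6×10^3/well, 20 h without FCS) got 10 μM final analogue for 1 h before 10% FCS, then grew about 5 days to control confluence.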

[2] = tested on: low density lipoprotein (LDL); assay: Inhibition of Cu2+-induced oxidation of LDL (lipid peroxides, FOX assay); type: biochemical
Protocol: Blood was collected by venipuncture and plasma separated by centrifugation. LDL was then isolated from plasma using a 4-step sodium chloride density gradient and ultracentrifuged at 200,000 g for 20 hours at 4° C. The collect LDL was purified by passage through gel filtration PD10 column to remove excess salt and EDTA, and stored in the dark at 4° C. to prevent auto-oxidation and used with two weeks of isolation. The LDL cholesterol content was measure using a standard enzymatic method and protein concentration determined by the Lowry method using BSA as the standard.
[…] Oxidation reactions were initiated by the addition of freshly prepared Cu^2+ solution, such that the final concentration of CuSO4 was 5 μM. […] The extent of lipoprotein oxidation was determined by measuring the formation of lipid-peroxides on aliquots removed every 30-minute over a 3-hour period. Peroxides were determined at each time point by the ferrous oxidation-xylenol orange (FOX) assay using standard hydrogen peroxide curve (5 to 200 μM). Compounds (1) and (2) were examined in at least two separate experiments performed on separate days.

[3] = tested on: TNFα synthesis in human peripheral blood monocytes; assay: Synthesis of TNFα by human monocytes stimulated with LPS; type: cell-based; settings: FIGS. 1a, 1b
Protocol: Human peripheral blood monocytes were isolated from buffy coats by lyrnpboprep gradient separation of mononuclear cells followed by counter-current centrifugal elutriation (Demasi et al. 2000). Test compounds were dissolved in DMSO and added to fresh monocytes to achieve concentrations of 0, 10 and 100 μM. After 30 min, LPS was added to achieve a final concentration of 200 ng/mL. After 1 h, supernatants were removed and TNFα measured by ELISA previously described (Demasi et al. 2003). ANOVA followed by Newman-Keuls multiple comparisons test was used to examine differences between doses and the control values.

[4] = biological target: T1, GAL4-PPARγ fusion protein (Homo sapiens, UniProt P37231); assay: PPARγ activity in transfected HEK293 cells (beta-lactamase reporter); type: cell-based; settings: FIG. 13: 1 μM
T1 construct: host or cells: HEK293 (human embryonic kidney), stably transfected
Method in brief: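 HEK293 cells stably expressing GAL4-DBD/PPARγ-LBD fusion with beta-lactamase reporter, treated with compound at 1, 5 and 10 μM for 16-18 h. Beta-lactamase read via FRET substrate (2 h, room temperature), ex 409 nm, em 460/530 nm; background-subtracted emission ratio.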

B cells = assay: B cell proliferation (LPS-stimulated mouse splenocytes, MTT); type: cell-based, Skh-1:HR 1 (hairless) mice; settings: 10 μM, 3 days
Protocol: Male Skh-1:HR 1 (hairless) mice, approximately six weeks old were killed by cervical dislocation. Single cell suspensions were made from the spleen and erythrocytes were lysed in buffer (0.14 M NH4Cl, 17 mM Tris, pH 7.2). The remaining splenocytes were cultured in RPMI-1640 (Gibco) supplemented with 10% (v:v) FBS, 200 mM L-glutamine, penicillin/streptomycin and […] 2-mercaptoethanol. Splenocytes were added to quadruplicate wells containing either concanavalin A (ConA, Sigma-Aldrich—0.4 μg/well), LPS (Sigma-Aldrich—1 μg/well) or no mitogen, as well 10 μM of test compound in DMSO. Samples were analysed after 3 days incubation at 37° C. in 5% CO2 in air. Methylthiazoletetrazolium (MTT) is bioreduced by viable cells into a coloured formazan product that is soluble in DMSO. Thus the quantity of formazan product is directly proportional to the number of living cells in culture, and can be measured using a spectrophotometer at 570 nm. MTT was added to each well, incubated for a further 4 hrs and then colour developed with 0.04 N HCl in isopropanol. Culture supernatants were stored after collection at −80° C. and analysed by ELISA (BD Biosciences) for IFN-γ (a Th-1 cytokine) and for T cells alone, IL-6 (a Th-2 cytokine).

T1 sequence (P37231 238-503 limits assumed): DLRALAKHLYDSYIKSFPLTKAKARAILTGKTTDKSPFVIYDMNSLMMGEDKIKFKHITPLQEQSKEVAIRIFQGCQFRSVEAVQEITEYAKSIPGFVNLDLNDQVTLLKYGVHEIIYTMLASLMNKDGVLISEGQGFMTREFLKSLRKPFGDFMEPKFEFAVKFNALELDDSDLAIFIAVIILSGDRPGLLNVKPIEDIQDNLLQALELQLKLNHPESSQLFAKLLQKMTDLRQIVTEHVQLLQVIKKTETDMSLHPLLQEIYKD
T1 sequence (P04386 1-147 partner limits assumed): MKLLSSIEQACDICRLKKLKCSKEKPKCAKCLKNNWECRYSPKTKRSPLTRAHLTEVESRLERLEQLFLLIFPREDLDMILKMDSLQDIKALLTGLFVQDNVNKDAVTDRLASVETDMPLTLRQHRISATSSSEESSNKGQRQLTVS

Structure (SMILES): Oc1ccc(C2=Cc3cc4c(cc3OC2)OCN(Cc2ccccc2)C4)cc1 [Compound 1, 4-(3-Benzyl-2,3,4,8-tetrahydrochromeno[6,7-e][1,3]oxazin-7-yl)phenol]
- IC50 ([1]; Homo sapiens, average over three different assays, 4-5 days, read-out: average IC50, inhibition of proliferation of HUVSMC): 15 µM

Structure (SMILES): CC(c1ccccc1)N1COc2cc3c(cc2C1)C=C(c1ccc(O)cc1)CO3 (stereo not drawn) [Compound 2, 4-(3-(1-Phenylethyl)-2,3,4,8-tetrahydrochromeno[6,7-e][1,3]oxazin-7-yl)phenol]
- effect on proliferation of HUVSMCs induced by FCS ([1]; 10 μM, 10% FCS, 5 days, FIG. 8): significantly inhibited the proliferation
- EC50 ([2]; LDL 0.1 mg/mL, CuSO4 5 μM, read-out: EC50, concentration at which 50% of the LDL oxidation was inhibited): 0.63 µM
- lipid peroxide formation ([2]; LDL 0.1 mg/ml + compound 0.1 μM + Cu^++ 5 μM, 0 min): 10.5 ± 2.93
- lipid peroxide formation ([2]; LDL 0.1 mg/ml + compound 0.1 μM + Cu^++ 5 μM, 30 min): 13.9 ± 2.51
- lipid peroxide formation ([2]; LDL 0.1 mg/ml + compound 0.1 μM + Cu^++ 5 μM, 60 min): 23.7 ± 4.71
- lipid peroxide formation ([2]; LDL 0.1 mg/ml + compound 0.1 μM + Cu^++ 5 μM, 90 min): 75.1 ± 8.43
- lipid peroxide formation ([2]; LDL 0.1 mg/ml + compound 0.1 μM + Cu^++ 5 μM, 120 min): 138.5 ± 2.94
- lipid peroxide formation ([2]; LDL 0.1 mg/ml + compound 0.1 μM + Cu^++ 5 μM, 180 min): 173.7 ± 34.4
- lipid peroxide formation ([2]; LDL 0.1 mg/ml + compound 1.0 μM + Cu^++ 5 μM, 0 min): 10.22 ± 2.9
- lipid peroxide formation ([2]; LDL 0.1 mg/ml + compound 1.0 μM + Cu^++ 5 μM, 30 min): 11.62 ± 2.4
- lipid peroxide formation ([2]; LDL 0.1 mg/ml + compound 1.0 μM + Cu^++ 5 μM, 60 min): 12.08 ± 3.2
- lipid peroxide formation ([2]; LDL 0.1 mg/ml + compound 1.0 μM + Cu^++ 5 μM, 90 min): 18.25 ± 3.2
- lipid peroxide formation ([2]; LDL 0.1 mg/ml + compound 1.0 μM + Cu^++ 5 μM, 120 min): 35.12 ± 0.4
- lipid peroxide formation ([2]; LDL 0.1 mg/ml + compound 1.0 μM + Cu^++ 5 μM, 180 min): 133.1 ± 18.3
- lipid peroxide formation ([2]; LDL 0.1 mg/ml + compound 10 μM + Cu^++ 5 μM, 0 min): 10.20 ± 2.6
- lipid peroxide formation ([2]; LDL 0.1 mg/ml + compound 10 μM + Cu^++ 5 μM, 30 min): 15.99 ± 0.1
- lipid peroxide formation ([2]; LDL 0.1 mg/ml + compound 10 μM + Cu^++ 5 μM, 60 min): 18.26 ± 0.8
- lipid peroxide formation ([2]; LDL 0.1 mg/ml + compound 10 μM + Cu^++ 5 μM, 90 min): 20.64 ± 1.3
- lipid peroxide formation ([2]; LDL 0.1 mg/ml + compound 10 μM + Cu^++ 5 μM, 120 min): 23.68 ± 1.2
- lipid peroxide formation ([2]; LDL 0.1 mg/ml + compound 10 μM + Cu^++ 5 μM, 180 min): 24.6 ± 21.9
- lipid peroxide formation ([2]; LDL 0.1 mg/ml + compound 100 μM + Cu^++ 5 μM, 0 min): 12.09 ± 2.8
- lipid peroxide formation ([2]; LDL 0.1 mg/ml + compound 100 μM + Cu^++ 5 μM, 30 min): 15.93 ± 5.4
- lipid peroxide formation ([2]; LDL 0.1 mg/ml + compound 100 μM + Cu^++ 5 μM, 60 min): 19.40 ± 7.8
- lipid peroxide formation ([2]; LDL 0.1 mg/ml + compound 100 μM + Cu^++ 5 μM, 90 min): 23.27 ± 8.7
- lipid peroxide formation ([2]; LDL 0.1 mg/ml + compound 100 μM + Cu^++ 5 μM, 120 min): 28.76 ± 5.0
- lipid peroxide formation ([2]; LDL 0.1 mg/ml + compound 100 μM + Cu^++ 5 μM, 180 min): 28.6 ± 12.9
- lipid peroxide formation ([2]; compound 100 μM + Cu^++ 5 μM, without LDL, 0 min): 7.69 ± 3.8
- lipid peroxide formation ([2]; compound 100 μM + Cu^++ 5 μM, without LDL, 30 min): 14.97 ± 0.4
- lipid peroxide formation ([2]; compound 100 μM + Cu^++ 5 μM, without LDL, 60 min): 19.19 ± 2.1
- lipid peroxide formation ([2]; compound 100 μM + Cu^++ 5 μM, without LDL, 90 min): 24.30 ± 4.3
- lipid peroxide formation ([2]; compound 100 μM + Cu^++ 5 μM, without LDL, 120 min): 28.31 ± 2.8
- lipid peroxide formation ([2]; compound 100 μM + Cu^++ 5 μM, without LDL, 180 min): 33.20 ± 6.7
- effect on synthesis of TNFα [3]: reduce the synthesis of TNFα
- PPARγ activation, increase in beta-lactamase activity over media only control [4]: PPARγ agonist activity
- effect on B cells (B cells): markedly and significantly immunosuppressive
